Like-named read-outs stand apart in the source and are kept apart here.
Experiments:
[1] = test system: PANC-1, C6, MCF-7, U2OS and HT1080; settings: 48 hours; for reduction in cell survival, drug alone: non-resistant cell lines, 0.1 μg/ml DOX or 0.3 μg/ml VIN alone
Description: Studies similar in general to those outlined in the previous section, were conducted with five cell lines selected for this task (PANC-1, C6, MCF-7, U2OS and HT1080), increasing the length of the experiment to 48 hours. The studies were done with DOX and with Vinblastine (VIN or VLB).

[2] = daily dose; cited from earlier work
B16F10 cells = settings: for lung metastatic burden (lung weight increase, number of lung metastasis), single agent: fluoxetine 0.04 mg/kg daily orally alone, or Doxorubicin 10 mg/kg i.v. alone
C6 cells [3] = test system: C6 cells; set-up: effect on cell survival: dose or concentration left out as unconfirmed; settings: 24 hours; for enhancement in cell death by the combination treatment: vs drug alone
[4] = test system: concavalin A-stimulated normal lymphocytes; settings: doses equivalent to 20-40 mg/M^2; cited from earlier work
C-26 cells = experiment: Solid tumor model, C-26 cells injected into footpad; type: in vivo, mice; settings: for solid tumor volume with time, single agent: fluoxetine 0.04 mg/kg daily orally alone, or MMC or DOX 5 mg/kg i.v. alone
Description: In the solid tumor model, C-26 cells were injected into the animal's right-hind footpad.
In the solid tumor model, Mitomycin C (MMC) and Doxorubicin (DOX), were tested separately, each at a dose of 5 mg/kg body.

fibrosarcoma cells = settings: doses equivalent to 20-40 mg/M^2; cited from earlier work
PANC-1 cells = test system: PANC-1 cells; set-up: effect on cell survival: dose or concentration left out as unconfirmed; settings: 24 hours; for enhancement in cell death by the combination treatment: vs drug alone
C6 cells [5] = settings: cells loaded with 0.1 μg/ml DOX alone
Description: Cells were grown in monolayers as described above. […] Control cells received media alone.

[6] = […] μM fluoxetine + 0.1 μg/ml Doxorubicin
[7] = […] μM fluoxetine + 30 μg/ml Mitomycin C

CC[C@]1(O)C[C@@H]2CN(CCc3c([nH]c4ccccc34)[C@@](C(=O)OC)(c3cc4c(cc3OC)N(C)[C@H]3[C@@](O)(C(=O)OC)[C@H](OC(C)=O)[C@]5(CC)C=CCN6CC[C@]43[C@@H]65)C2)C1 [Vinblastine]
reduction in cell survival, drug alone [1]: 50%

CNCCC(Oc1ccc(C(F)(F)F)cc1)c1ccccc1 (stereo not shown) [fluoxetine, N-methyl 3-(p-trifluoromethylphenoxy)-3-phenylpropylamine]
known, acceptable safety limit [2]: 80 mg/M^2 | survival, single agent (B16F10 cells; CS alone or CT alone, 75-days experiment): died rather early | lung metastatic burden, combination treatment (B16F10 cells; fluoxetine 0.04 mg/kg daily orally + Doxorubicin 10 mg/kg i.v.): substantial reduction | lung metastatic burden (lung weight increase, number of lung metastasis), single agent (B16F10 cells): highest metastatic burden | survival, combination treatment (B16F10 cells; fluoxetine + Doxorubicin, 75-days experiment): long survivors | enhancement in cell death by the combination treatment (C6 cells [3]; [6]): 3-4 fold | enhancement in cell death by the combination treatment (C6 cells [3]; [7]): 3-4 fold | effect on cell survival (C6 cells [3]; […] μM fluoxetine alone): does not affect cell survival at all | effect on proliferation of concavalin A-stimulated normal lymphocytes [4]: inhibits the proliferation | prolongation of survival (C-26 cells; DOX+CS vs saline, CS alone and DOX alone): 3 fold | prolongation of survival (C-26 cells; MMC+CS vs saline, CS alone and MMC alone): 2 fold | solid tumor size and growth, combination therapy (C-26 cells; fluoxetine 0.04 mg/kg daily orally + DOX 5 mg/kg i.v.): tumors are substantially smaller | solid tumor size and growth, combination therapy (C-26 cells; fluoxetine 0.04 mg/kg daily orally + MMC 5 mg/kg i.v.): tumors are substantially smaller | solid tumor volume with time, single agent (C-26 cells): increases fast and exponentially | effect on proliferation of fibrosarcoma cells (fibrosarcoma cells): promotes the proliferation | enhancement in cell death by the combination treatment (PANC-1 cells; [6]): 3-4 fold | enhancement in cell death by the combination treatment (PANC-1 cells; [7]): 3-4 fold | effect on cell survival (PANC-1 cells; […] μM fluoxetine alone): does not affect cell survival at all | toxicity to the cells, fluoxetine alone ([1]; fluoxetine alone, 0-15 μM): not toxic

COc1cccc2c1C(=O)c1c(O)c3c(c(O)c1C2=O)C[C@@](O)(C(=O)CO)C[C@@H]3O[C@H]1C[C@H](N)[C@H](O)[C@H](C)O1 [Doxorubicin]
depletion of intracellular DOX at 2 hours (C6 cells [5]): 100% | lung metastatic burden (lung weight increase, number of lung metastasis), single agent (B16F10 cells): only a mild reduction | solid tumor volume with time, single agent (C-26 cells): increases fast and exponentially | reduction in cell survival, drug alone [1]: 50%

CO[C@@]12[C@H](COC(N)=O)C3=C(C(=O)C(C)=C(N)C3=O)N1C[C@@H]1N[C@@H]12 [Mitomycin C]
solid tumor volume with time, single agent (C-26 cells): increases fast and exponentially

— patent US20040266882A1 (priority 2001, published 2004)
